Source: patent US9239334B2, “Fatty acid C16: 1N7-palmitoleate a lipokine and biomarker for metabolic status” (PRESIDENT AND FELLOWS OF HARVARD COLLEGE, priority 2008, dated 2016)
“Also recorded” adds a separate entry of the source.

Assays:
[1] = test system: insulin receptor, IRS-1, IRS-2 and AKT phosphorylation in liver; assay: Insulin signaling in liver of lipid-infused mice (immunoblotting); format: in vivo; details: fatty acid:palmitoleate infusion 3.3 μl/min
Source text: (§1) FIGS. 7A-7G show data on the regulation of insulin signaling and glucose metabolism by palmitoleate. FIG. 7A is the basal and insulin-stimulated phosphorylation of insulin receptor (IR), insulin receptor substrate-1 (IRS-1) and -2 (IRS-2) and AKT in liver of mice infused with vehicle (Veh), TG:palmitoleate (C16:1n7) or TG:palmitate (C16). Representative blots are shown and quantifications on the right are averaged results of three mice in each treatment group. […] Representative blots are shown and quantifications on the right are averaged results of three mice in each treatment group.
(§2) The left panel presents the insulin-stimulated phosphorylation of insulin receptor and AKT in liver of mice infused with vehicle or palmitoleate. […] Mice were infused with vehicle or palmitoleate at 3.3 μl/min for six hrs, and insulin (1 U/Kg) was injected through the infusing tubing. Three minutes after insulin injection, tissues were collected and immunoblotting analyses were performed.
(§3) The present invention also provides for the regulation of insulin action by increased circulating palmitoleate. To study whether palmitoleate regulates systemic metabolic responses, lipid infusions were administered in conscious mice. Lipid infusion has been used widely to investigate the relationship between plasma FFAs and insulin resistance, but almost all studies using this protocol utilized preparations of natural lipid products containing a variety of fatty acids. Kim et al., 114 J. Clin. Invest. 823-27 (2004); Kim et al., 277 J. Biol. Chem. 32915-22 (2002); Yu et al., 277 J. Biol. Chem. 50230-36 (2002). […]
(§4) Samples of 200 μl serum were collected using heparin-coated glass tubes and spun at 13,000 g in a microcentrifuge to separate the plasma. […] Tissue protein lysates was separated with SDS-PAGE gels and phosphorylated or total proteins were detected with the following antibodies: phospho AKT Serine 473, AKT, insulin receptor, phospho-tyrosine (Santa Cruz Biotech.); IRS-1 and IRS-2 (Upstate); phospho-GSK and GSK (Cell Signaling Tech.); phospho-insulin receptor from (Calbiocbem). […]

[2] = test system: insulin receptor signaling in muscle tissue; assay: Insulin signaling in muscle of lipid-infused mice (immunoblotting); format: in vivo; details: fatty acid:palmitoleate infusion 3.3 μl/min
Source text: as §1, §2, §3, §4

SCD-1 promoter = assay: SCD-1 promoter-driven luciferase reporter in FAO hepatoma cells; format: cell-based, murine
Method: This possibility was tested using several highly sensitive assays to probe the functional profile and activities of plasma lipids. SCD-1 was chosen as a target because it was determined previously that the suppression of hepatic SCD-1 activity is a major alteration in FABP-deficient mice under diet-induced or genetic obesity. Cao et al., 2006; Maeda et al., 2005. Hepatic SCD-1 expression is regulated by a variety of hormones and nutritional factors such as insulin, glucose, and polyunsaturated fatty acids (PUFAs). Ntambi & Miyazaki, 43 Prog. Lipid Res. 91-104 (2004). […] Chu et al., 26 Mol. Cell Biol. 6786-98 (2006); Ntambi, 40 J. Lipid Res. 1549-58 (1999). The 1.5 kb murine SCD-1 promoter was placed in front of a luciferase reporter and inserted into an adenovirus construct. FAO rat hepatoma cells infected with this adenovirus verified the responsiveness of this reporter to PUFA, consistent with previous observations (FIG. 15). Because this assay system was adapted to a microplate format, very small amounts of lipids were required for experimentation. This system allowed direct testing for the effects of lipids extracted from plasma of WT and FABP-deficient animals.
Lipids were extracted from whole plasma and applied to liver cells expressing the SCD-1 promoter reporter gene. […] To control for any difference in the amount of lipids extracted from plasma and to mimic the in vivo regulation of SCD-1 expression, mixtures of FFAs were generated with the same molar ratio detected in WT or FABP-deficient plasma lipids using the major fatty acids listed in FIG. 2C. […]
as §4

Question: CCCCCC/C=C\CCCCCCCC(=O)O [palmitoleate, C16:1n7-palmitoleate] was tested. Which “liver insulin signaling (insulin receptor and AKT activation)” value [1] did it give?
Answer: enhanced

Question: What about the “muscle insulin signaling (insulin receptor and AKT activation)” value [2] of the same compound?
Answer: enhanced

Question: And the “effect of palmitate on SCD-1 promoter” value (SCD-1 promoter; cells treated with a mixture of palmitate and palmitoleate)?
Answer: antagonized

Question: And the “SCD-1 promoter-driven reporter activity” value (SCD-1 promoter; hepatocytes (FAO) treated with a single fatty acid, 300 μM)?
Answer: negatively regulated; also recorded: comparable to arachidonic acid; also recorded: suppressed
